Measurements taken from publication PMC5464773 (eLife, 2017).
Peptide text beside a SMILES is read from it. * marks the point of attachment. Acryloyl = C=CC(=O)*

Tests used:
Test in all cases: BH3 profiling, mitochondrial depolarization (JC-1) in permeabilized cells
Format in all cases: cell-based
[1] = tested on: BCR-ABL-expressing B-lineage acute lymphoblastic leukemia cells dependent on Mcl-1; conditions: BH3 profiling fits Mcl-1, sigmoidal dose-response (variable slope)
Procedure: (§1) Cell line identities were confirmed by STR profiling.
(§2) Peptides were titrated by serial dilution in MEB buffer (150 mM Mannitol, 10 mM HEPES-KOH pH 7.5, 50 mM KCl, 0.02 mM EGTA, 0.02 mM EDTA, 0.1% BSA and 5 mM Succinate) containing 20 μg/mL oligomycin, 50 μg/mL digitonin, 2 μM JC-1 and 10 mM 2-mercaptoethanol in 384-well plates. Controls for no depolarization (1% DMSO) and complete depolarization with the mitochondrial oxidative phosphorylation uncoupler FCCP (20 μM) were included for data normalization. […] 15 μL of cell suspension was added to each well containing 15 μL of treatment solution. […] To produce percent depolarization, the area under the resultant curve was calculated and normalized to the assay controls. Peptide titration curves were fit to sigmoidal dose-response curves using Graphpad PRISM seven to obtain EC50 values.

[2] = tested on: BCR-ABL-expressing B-lineage acute lymphoblastic leukemia cells dependent on Bcl-xL; conditions: BH3 profiling fits Bcl-xL, sigmoidal dose-response (variable slope), fit ambiguous
Procedure: as §1, §2

[3] = tested on: BCR-ABL-expressing B-lineage acute lymphoblastic leukemia cells dependent on Bfl-1; set-up: key to Bottom (best-fit value) / Top (best-fit value): % depolarization, normalized to DMSO (0) and FCCP (100) controls; conditions: BH3 profiling fits Bfl-1, sigmoidal dose-response (variable slope)
Procedure: as §1, §2

C=CC(=O)N[C@@H](Cc1c[nH]c2ccccc12)C(=O)N[C@H](C(=O)N[C@@H](CCCNC(=N)N)C(=O)N[C@@H](CCC(=O)O)C(=O)N[C@H](C(=O)N[C@@H](C)C(=O)N[C@@H](C)C(=O)NCC(=O)N[C@@H](CC(C)C)C(=O)N[C@@H](CCCNC(=N)N)C(=O)N[C@@H](CCCNC(=N)N)C(=O)N[C@@H](C)C(=O)N[C@@H](C)C(=O)N[C@@H](CC(=O)O)C(=O)N[C@@H](CC(=O)O)C(=O)N[C@H](C(=O)N[C@@H](CC(N)=O)C(=O)N[C@@H](C)C(=O)N[C@@H](CCC(N)=O)C(=O)N[C@H](C(=O)N[C@@H](CCC(=O)O)C(=O)N[C@@H](CCCNC(=N)N)C(N)=O)C(C)C)C(C)C)[C@@H](C)CC)C(C)C [FS2gX] (Acryloyl-WVREIAAGLRRAADDVNAQVER-NH2)
HillSlope (best-fit value) [1]: 0.1762
Bottom (best-fit value) ([1]; constrained (0 < Bottom < 5 or Bottom < 5)): -6.58
Top (best-fit value) ([1]; constrained (Top < 100 or Top > 78)): ~ 78
Bottom (best-fit value) ([2]; constraint Bottom < 5): ~ -1647
Top (best-fit value) ([2]; constraint Top > 78): ~ 78
HillSlope (best-fit value) [2]: ~ -0.02698
HillSlope (best-fit value) [3]: 0.7987
Bottom (best-fit value) ([3]; constraint Bottom < 5): -3.828
Top (best-fit value) ([3]; constraint Top > 78): 78.27
LogEC50 (best-fit value) ([3]; x = Log [Peptide] M, 55-56 Y values analyzed): -8.01
